According to patent US7462605B2, “Phosphoramidate compounds and methods of use” (Celmed Oncology (USA), Inc., priority 2002, dated 2008):
Like-named read-outs stand apart in the source and are kept apart here.

Legend:
[1] = tested on: MCF7TDX cells; experiment: 384-well interaction screening assay (alamarBlue) with NB1011, MCF7TDX; format: cell-based, human; conditions: drug combined with NB1011, MCF7TDX, 384-well alamarBlue, 5-day
Description: Cell lines: Normal human colon epithelial cells (CCD18co) and skin fibroblasts (Det55 1) were purchased from ATCC (Rockville,Md.). MCF7TDX, human breast carcinoma cells resistant to 2 μM Tomudex were obtained from Dr. Patrick Johnston, Queens University, Belfast. […] The MCF7TDX and the H630R10 cell lines have been previously described in Drake, J. C. et al. (1996) and Copur, S. et al. (1995) respectively.
Culture Conditions: All cells were cultured under standard conditions of 37° C., 95% humidified air, 5% CO2 in RPMI 1640 culture medium containing 10% fetal calf serum (Life Technologies) and penicillin/streptomycin/fungizone. […] The medium was renewed or the cells were passaged about every three days to maintain optimal growth conditions. […]
Cytotoxicity Studies: 384-well interaction screening assay. […] Following a 5-day incubation, the redox indicator dye, alamarBlue (AccuMed International, Westlake, Ohio) was added to each well at a 10% v/v ratio, and fluorescence was monitored at 535 excitation, 595 emission. Cytotoxic effect levels and drug interactions were assessed by the combination index method (Chou, T. C. and Talalay, P. (1984) and Bible, K. C. et al. (1997)), described briefly below. […] Sigmoid curves were fit according to the Hill inhibitory Emax model, and IC50 calculated as the average of three or more separate determinations. […]

[2] = tested on: SOAS2 (Bone) tumor cells; experiment: alamarBlue growth inhibition, SOAS2; format: cell-based, human; conditions: Homo sapiens, 120 hours
Description: (§1) Growth Inhibition Studies. Cells growing exponentially were transferred to 384-well flat bottom tissue culture plates. All cell types were plated at a density of 500 cells per well in 25 μL of complete medium (RPMI 1640+10% fetal bovine serum+antibiotics/antimycotics). After 24 hours (day 0), 25 μL of complete medium containing the experimental compounds over the dose range of 10^ñ3 to 10^ñ10 M were added in triplicate. […] 5 μL of the redox indicator, alamarBlue, was added to each well (10% v/v). After 4 hours incubation at 37° C., fluorescence was monitored at 535 nm excitation and 595 nm emission.
(§2) Concentration vs. relative fluorescence units (RFU) were plotted, and sigmoid curves were fit using the Hill equation.

[3] = tested on: MRC9 (Lung) normal cells; experiment: alamarBlue growth inhibition, MRC9; format: cell-based, human; conditions: Homo sapiens, 120 hours
Description: as §1, §2

[4] = tested on: W138 (Lung) normal cells; experiment: alamarBlue growth inhibition, W138; format: cell-based, human; conditions: Homo sapiens, 120 hours
Description: as §1, §2

[5] = tested on: NHEPF (Liver) normal cells; experiment: alamarBlue growth inhibition, NHEPF; format: cell-based, human; conditions: Homo sapiens, 120 hours
Description: as §1, §2

[6] = tested on: PANC1 (Pancreas) tumor cells; experiment: alamarBlue growth inhibition, PANC1; format: cell-based, human; conditions: Homo sapiens, PANC-1, 120 hours
Description: as §1, §2

[7] = tested on: DET551 (Skin) normal cells; experiment: alamarBlue growth inhibition, DET551; format: cell-based, human; conditions: Homo sapiens, 120 hours
Description: as §1, §2

[8] = tested on: SW527 (Breast) tumor cells; experiment: alamarBlue growth inhibition, SW527; format: cell-based, human; conditions: Homo sapiens, 120 hours
Description: as §1, §2

[9] = tested on: NCI H520 (Lung) tumor cells; experiment: alamarBlue growth inhibition, NCI H520; format: cell-based, human; conditions: Homo sapiens, 120 hours
Description: as §1, §2

[10] = tested on: HT1080 (Colon) tumor cells; experiment: alamarBlue growth inhibition, HT1080; format: cell-based, human; conditions: Homo sapiens, HT-1080, 120 hours
Description: as §1, §2

[11] = tested on: SKHEP1 (Liver) tumor cells; experiment: alamarBlue growth inhibition, SKHEP1; format: cell-based, human; conditions: Homo sapiens, SK-HEP1, 120 hours
Description: as §1, §2

[12] = tested on: SKLU1 (Lung) tumor cells; experiment: alamarBlue growth inhibition, SKLU1; format: cell-based, human; conditions: Homo sapiens, SK-LU-1, 120 hours
Description: as §1, §2

[13] = tested on: MDAMB361 (Breast) tumor cells; experiment: alamarBlue growth inhibition, MDAMB361; format: cell-based, human; conditions: Homo sapiens, MDA-MB-361, 120 hours
Description: as §1, §2

[14] = tested on: PC3 (Prostate) tumor cells; experiment: alamarBlue growth inhibition, PC3; format: cell-based, human; conditions: Homo sapiens, 120 hours
Description: as §1, §2

[15] = H630-10 5-FU resistant colon carcinoma xenografts in athymic mice; conditions: female, CD-1 (nu/nu) athymic, mouse, in vivo, ip
Description: Tumor measurements began on the first day of treatment (Day 1).
Following cell expansion ex-vivo H630-10 were injected subcutaneously (S.Q.) at 1.5×10^7 cells/tumor in the mid-back region of 4-6 week old, female, CD-1 (nu/nu), athymic mice (Charles River Laboratories, Wilmington, Mass.). Tumor volumes, calculated as the product of length, width, and depth, were monitored twice weekly by serial micrometer measurements by a single observer. Six animals were randomly assigned to each treatment group and statistical tests were performed (single-factor ANOVA) to assure uniformity in starting tumor volumes between treatment and control groups at the beginning of the experiment. […] To assure accurate dosing, drug doses were individualized based upon animal weights determined immediately prior to each injection. […] Differences in day 25 xenograft volumes between groups were analyzed by single-factor ANOVA of the log transformed tumor volume data.

[16] = tested on: HCTC (Colon) tumor cells; experiment: alamarBlue growth inhibition, HCTC; format: cell-based, human; conditions: Homo sapiens, 120 hours
Description: as §1, §2

[17] = tested on: COLO205 (Colon) tumor cells; experiment: alamarBlue growth inhibition, COLO205; format: cell-based, human; conditions: Homo sapiens, COLO 205, 120 hours
Description: as §1, §2

[18] = tested on: NHLF (Lung) normal cells; experiment: alamarBlue growth inhibition, NHLF; format: cell-based, human; conditions: Homo sapiens, 120 hours
Description: as §1, §2

[19] = tested on: A431 (Skin) tumor cells; experiment: alamarBlue growth inhibition, A431; format: cell-based, human; conditions: Homo sapiens, A-431, 120 hours
Description: as §1, §2

[20] = tested on: MCIxc (Brain) tumor cells; experiment: alamarBlue growth inhibition, MCIxc; format: cell-based, human; conditions: Homo sapiens, MC-IXC, 120 hours
Description: as §1, §2

[21] = tested on: NHA (Brain) normal cells; experiment: alamarBlue growth inhibition, NHA; format: cell-based, human; conditions: Homo sapiens, 120 hours
Description: as §1, §2

[22] = tested on: SKCO1 (Colon) tumor cells; experiment: alamarBlue growth inhibition, SKCO1; format: cell-based, human; conditions: Homo sapiens, SK-CO-1, 120 hours
Description: as §1, §2

[23] = tested on: CCD18co normal colon epithelial cells; experiment: alamarBlue growth inhibition, CCD18co; format: cell-based, human; conditions: Homo sapiens, CCD-18Co; Normal Cells: CCD1800 (Colon); alamarBlue, 120 hours
Description: as §1, §2

[24] = tested on: HEPG2 (Liver) tumor cells; experiment: alamarBlue growth inhibition, HEPG2; format: cell-based, human; conditions: Homo sapiens, 120 hours
Description: as §1, §2

[25] = tested on: NHDF (Skin) normal cells; experiment: alamarBlue growth inhibition, NHDF; format: cell-based, human; conditions: Homo sapiens, 120 hours
Description: as §1, §2

[26] = tested on: H527 (Skin) normal cells; experiment: alamarBlue growth inhibition, H527; format: cell-based, human; conditions: Homo sapiens, 120 hours
Description: as §1, §2

[27] = tested on: COLO320 (Colon) tumor cells; experiment: alamarBlue growth inhibition, COLO320; format: cell-based, human; conditions: Homo sapiens, COLO 320, 120 hours
Description: as §1, §2

[28] = tested on: NPRSC (Prostate) normal cells; experiment: alamarBlue growth inhibition, NPRSC; format: cell-based, human; conditions: Homo sapiens, 120 hours
Description: as §1, §2

[29] = tested on: NHOST (Bone) normal cells; experiment: alamarBlue growth inhibition, NHOST; format: cell-based, human; conditions: Homo sapiens, 120 hours
Description: as §1, §2

[30] = tested on: normal and tumor cell types; experiment: cells; conditions: Homo sapiens
Description: Growth Inhibition Studies. Cells growing exponentially were transferred to 384-well flat bottom tissue culture plates. All cell types were plated at a density of 500 cells per well in 25 μL of complete medium (RPMI 1640+10% fetal bovine serum+antibiotics/antimycotics). After 24 hours (day 0), 25 μL of complete medium containing the experimental compounds over the dose range of 10^ñ3 to 10^ñ10 M were added in triplicate. Drug exposure time was 120 hours (day 5), after which growth inhibition was assayed. 5 μL of the redox indicator, alamarBlue, was added to each well (10% v/v). After 4 hours incubation at 37° C., fluorescence was monitored at 535 nm excitation and 595 nm emission.
as §2
Assays were carried out as described in Methods, above. Therapeutic index is calculated as the ratio of the average IC50 for normal cells to the average IC50 for tumor cells. All assays were done at least three times.

[31] = tested on: SKOV3 (Ovary) tumor cells; experiment: alamarBlue growth inhibition, SKOV3; format: cell-based, human; conditions: Homo sapiens, SK-OV-3, 120 hours
Description: as §1, §2

[32] = tested on: MDAMB468 (Breast) tumor cells; experiment: alamarBlue growth inhibition, MDAMB468; format: cell-based, human; conditions: Homo sapiens, MDA-MB-468, 120 hours
Description: as §1, §2

[33] = tested on: SW620 (Colon) tumor cells; experiment: alamarBlue growth inhibition, SW620; format: cell-based, human; conditions: Homo sapiens, SW-620, 120 hours
Description: as §1, §2

[34] = tested on: H630R10 5FU-resistant colon tumor cells; experiment: alamarBlue growth inhibition, H630R10; format: cell-based, human; conditions: Homo sapiens; Tumor Cells: H630R10 (Colon); alamarBlue, 120 hours; read-out: IC50
Description: as §1, §2

[35] = tested on: CCD18co normal colon epithelial cells; experiment: Thymidine rescue, alamarBlue cytotoxicity; format: cell-based, human
Excerpt: An additional approach was taken to understanding whether NB1011 might interfere with cell growth primarily by inactivating TS. This approach is based upon thymidine rescue of TS-blocked cells. […] For this reason, they survive only by scavenger mechanisms. One of the important scavenger mechanisms is utilization of extracellular thymidine. Thymidine incorporated by target cells can be converted to dTMP, usually by thymidine kinase, and thus continue DNA synthesis. Other pathways for use of exogenous thymidine have also been described If an important mechanism for NB1011 activity is via inhibition of endogenous TS, then the cytotoxicity should be relieved when thymidine is added to the cell culture media. For this experiment, a number of tumor cell lines were screened for their sensitivity to Tomudex and 5FdUrd, and ability to be rescued from these agents via thymidine supplementation. […] Experiments were carried out as described by (Patterson, et al. (1998)) with or without 10 μM thymidine, except that the alamarBlue assay was employed to determine cytotoxicity.

[36] = tested on: TSL/HT1080 cells; experiment: alamarBlue cytotoxicity, HT1080 expressing low GFP-TS; format: cell-based, human; conditions: TSL/HT1080, TS Level 409%
Description: (§3) Cell lines and transfection. HT1080 cells were grown in PRM11640 medium supplemented with 10% fetal calf serum, and transfected with GFP-TS expression vector. 48 hours after, transfection cells were tripsinized and replated in culture medium containing 750 μg/ml G418. After selection with G418 for two weeks, surviving cells were sorted based upon fluorescence expression. One clone with higher fluorescence expression (named as TSH/HT1080) and one clone with lower fluorescence expression (named as TSL/HT1080) were selected and expanded into cells lines. The stable HT1080 cells transfected with pEGFP-C3 were used as control.
(§4) Construction of GFP-TS expression vector. […] The cDNA was cloned into HindIII and KpnI sites of mammalian expression vector pEGFP-C3 (Clontech Laboratories. Inc., Palo Alto, Calif.), in-frame with GFP sequence. The cDNA insert was confirmed by DNA sequencing.
(§5) Growth Inhibition Studies. Cells growing exponentially were transferred to 384-well flat bottom tissue culture plates. All cell types were plated at a density of 500 cells per well in 25 μL of complete medium (RPMI 1640+10% fetal bovine serum+antibiotics/antimycotics). […] After 4 hours incubation at 37° C., fluorescence was monitored at 535 nm excitation and 595 nm emission.
as §2

[37] = tested on: C/HT1080 cells; experiment: alamarBlue cytotoxicity, control-transfected HT1080; format: cell-based, human; conditions: C/HT1080, TS Level 100%
Description: as §3, §4, §5, §2

[38] = tested on: TSH/HT1080 cells; experiment: alamarBlue cytotoxicity, HT1080 expressing high GFP-TS; format: cell-based, human; conditions: second line printed TSL/HT1080, TS Level 702%
Description: as §3, §4, §5, §2

Structure (SMILES): N.N.[Cl][Pt][Cl] [Cisplatin]
- Combination Index ± s.e.m. [1]: 1.51 ± 0.35

Structure (SMILES): CCc1c2c(nc3ccc(OC(=O)N4CCC(N5CCCCC5)CC4)cc13)-c1cc3c(c(=O)n1C2)COC(=O)[C@]3(O)CC [Irinotecan]
- Combination Index ± s.e.m. [1]: 1.36 ± 0.38

Structure (SMILES): O=c1[nH]cc(F)c(=O)[nH]1 [5FU, 5-fluorouracil]
- IC50 [2]: 1400 nM
- IC50 [3]: 1100 nM
- IC50 [4]: 1000 nM
- IC50 [5]: 1700 nM
- IC50 [6]: 1900 nM
- IC50 [7]: 800 nM
- IC50 [8]: 4300 nM
- IC50 [9]: 600 nM
- IC50 [10]: 800 nM
- IC50 [11]: 1700 nM
- IC50 [12]: 7900 nM
- IC50 [13]: 5000 nM
- IC50 [14]: 900 nM
- MTD at 5 days [15]: 15 mg/kg
- IC50 [16]: 2800 nM
- IC50 [17]: 1300 nM
- IC50 [18]: 900 nM
- IC50 [19]: 200 nM
- IC50 [20]: 1200 nM
- IC50 [21]: 900 nM
- IC50 [22]: 1400 nM
- IC50 [23]: 2000 nM
- IC50 [24]: 22800 nM
- IC50 [25]: 800 nM
- IC50 [26]: 1600 nM
- IC50 [27]: 1500 nM
- IC50 [28]: 1700 nM
- IC50 [29]: 4700 nM
- IC50 ([30]; read-out: IC50 (μM), Average, average of the 11 normal cell types): 1.6 µM
- IC50 ([30]; read-out: IC50 (μM), Average, average of the 21 tumor cell lines): 5.3 µM
- IC50 [31]: 3000 nM
- IC50 [32]: 4400 nM
- IC50 [33]: 4600 nM
- IC50 [34]: 41600 nM

Structure (SMILES): O=c1[nH]c(=O)n([C@H]2C[C@H](O)[C@@H](CO)O2)cc1F [FUDR]
- IC50 ([35]; in the presence of 10 μM thymidine): > 5900 nM
- IC50 ([35]; without thymidine): < 10 nM
- IC50 [36]: 2200 nM
- IC50 [37]: < 100 nM
- IC50 [38]: 3100 nM
